Results from US20240174665A1, “CDK2 INHIBITORS AND USES THEREOF” (Kymera Therapeutics, Inc., priority 2022, published 2024).

Molecular target: T1, CDK2/CycE1 (Homo sapiens, UniProt P24941)
T1 construct: 1.5 nM CDK2/CycE1, amino acids 1-298/1-410, Carna BS; purchased Carna BS (Carna Biosciences) 04-165, lot 20CBS-0731B
Experiment: CDK2 inhibition assay, PhosphoSens CSox-based Kinetic Assay Format (AssayQuant)
Type: biochemical
Settings: 1.5 nM CDK2/CycE1, 1.5× Km ATP, 30 minute preincubation at 30° C., reaction 240 minutes; read-out: IC50 CDK2-CycE1 (AssayQuant) Using PhosphoSens ® CSox-based Kinetic Assay Format
Method: Inhibition of CDK2 was measured using PhosphoSens® CSox-based Kinetic Assay Format (AssayQuant Technologies) as follows:
• 2.5 μl 10× Inhibitor in 10% DMSO (3-fold titration in 10% DMSO for a final DMSO concentration of 1%) • […] Reaction Mix with ATP, DTT, & CSx Substrate • 30 minute preincubation at 30° C. • […] Enzyme dilution buffer (EDB) (1×) or Kinase (5× in EDB); Enzyme Dilution Buffer (EDB): 20 mM HEPES, pH 7.5, 0.01% Brij-35, 0.1 mM EGTA, 5% Glycerol, 1.0 mg/ml BSA, 1.0 mM DTT • 25 μL Final reaction volume • Reaction was run at 30° C. for 240 minutes
• 54 mM HEPES, pH 7.5 • 1.5× Km ATP (see ATP TAB) • 1.2 mM DTT • 0.012% Brij-35 • 0.52 mM EGTA • 1% glycerol • 0.2 mg/ml BSA • 10 mM MgCl2 • 15 μM AQT0297
Reactions were run in Corning, low volume 384-well, white flat round bottom polystyrene NBS microplates (Cat. #3824) after sealing using optically-clear adhesive film (TopSealA-Plus plate seal, PerkinElmer [Cat. #6050185])
The letter codes for CDK2 inhibition include: A (<100 nM), B (≥100-500 nM), C (>500-1000 nM), and D (>1000 nM).

SMILES	IC50
CNS(=O)(=O)c1ccc(Nc2ncc(C(F)(F)F)c(C3CCOCC3)n2)c(C)c1 [I-271]	500 to 1000 nM
COC1CC2(CCC(Nc3ncc4cc(Cl)c(=O)n(C5CCCC5)c4n3)CC2)C1 (stereo not drawn) [I-239]	> 1000 nM
CCS(=O)(=O)c1ccc(Nc2ncc3cc(C(F)F)c(=O)n(C(C)C)c3n2)c(C)c1 [I-31]	> 1000 nM
CCS(=O)(=O)c1ccc(Nc2ncc3cc(Cl)c(=O)n(C(C)C)c3n2)c(C)c1 [I-30]	100 to 500 nM
CC(=O)N1CCC(Nc2ncc3cc(Cl)c(=O)n(C(C)C)c3n2)CC1 [I-235]	500 to 1000 nM
CCS(=O)(=O)c1ccc(Nc2ncc(C(F)(F)F)c([C@H]3CC[C@](C)(O)CC3)n2)c(C)c1 [I-43]	> 1000 nM
CCS(=O)(=O)c1ccc(Nc2ncc3cc(C(F)(F)F)c(=O)n(C4CCCC4)c3n2)c(C)c1 [I-53]	500 to 1000 nM
CNS(=O)(=O)c1ccc(Nc2nc(OC3CCCCC3)c3ncsc3n2)c(C)c1 [I-234]	> 1000 nM
Cc1cc(CS(C)(=N)=O)ccc1Nc1ncc2cc(Cl)c(=O)n(C(C)C)c2n1 (stereo not drawn) [I-207]	100 to 500 nM
CCS(=N)(=O)c1ccc(Nc2ncc3cc(Cl)c(=O)n(C(C)C)c3n2)c(C)c1 (stereo not drawn) [I-208]	100 to 500 nM
Cc1cc(CS(C)(=O)=O)ccc1Nc1ncc2cc(Cl)c(=O)n(C(C)C)c2n1 [I-197]	> 1000 nM
CNS(=O)(=O)c1ccc(Nc2ncc3cc(Cl)c(=O)n(C(C)C)c3n2)c(C)n1 [I-218]	100 to 500 nM
CCS(=O)(=O)c1ccc(Nc2ncc3cc(F)c(=O)n(C4CCCC4)c3n2)c(C)c1 [I-52]	100 to 500 nM
CNS(=O)(=O)c1ccc(Nc2ncc(C(F)(F)F)c(-c3cnn(C)c3C(F)F)n2)c(C)c1 [I-267]	100 to 500 nM
CCS(=O)(=O)c1ccc(Nc2ncc(C(F)(F)F)c(-c3cnn(C)c3C(F)F)n2)c(C)c1 [I-45]	500 to 1000 nM
CNS(=O)(=O)c1ccc(Nc2ncc(C(F)(F)F)c(-c3cnc(C)n3C(C)C)n2)c(C)c1 [I-265]	100 to 500 nM
CC(=O)N(c1ccc(-c2cnn(C)c2)cc1)[C@H]1CC[C@H](Nc2ncc3cc(Cl)c(=O)n(C(C)C)c3n2)CC1 [I-228]	100 to 500 nM
CCS(=O)(=O)c1ccc(Nc2nccc(-c3cnc(C)n3C(C)C)n2)c(C)c1 [I-29, N-(4-ethylsulfonyl-2-methyl-phenyl)-4-(3-isopropyl-2-methyl-imidazol-4-yl) pyrimidin-2-amine]	100 to 500 nM
CC(C)(O)c1cccc2cnc(NC3CCN(S(C)(=O)=O)CC3)cc12 [I-212]	100 to 500 nM
CNS(=O)(=O)c1ccc(Nc2ncc(C(F)(F)F)c(C3CCCCC3)n2)c(C)c1 [I-68]	> 1000 nM
COCc1cc(-c2ccc(Nc3ncc4cc(Cl)c(=O)n(C(C)C)c4n3)c(C)c2)n(C)n1 [I-210]	> 1000 nM
CCS(=O)(=O)c1ccc(Nc2ncc(C(F)(F)F)c([C@H]3CC[C@@](C)(O)CC3)n2)c(C)c1 [I-40]	> 1000 nM

Continued, values first:

IC50	SMILES
100 to 500 nM	CNS(=O)(=O)c1cc(C)c(Nc2ncc3cc(Cl)c(=O)n(C(C)C)c3n2)cn1 [I-213]
< 100 nM	CNS(=O)(=O)c1ccc(Nc2ncc(C(F)(F)F)c(-c3cn(C(C)C)c(C)n3)n2)c(C)c1 [I-266]
< 100 nM	CNS(=O)(=O)c1ccc(Nc2ncc3cc(Cl)c(=O)n(C(C)C)c3n2)c(C)c1 [I-247]
< 100 nM	CCS(=O)(=O)c1ccc(Nc2ncc3c(n2)N(C2CCCC2)C(=O)C32CC2)c(C)c1 [I-35]
< 100 nM	Cc1cc(S(=O)(=O)C2CCC3(CC2)CN(C)C3)ccc1Nc1ncc2cc(Cl)c(=O)n(C3CCCC3)c2n1 [I-41]
< 100 nM	CNS(=O)(=O)c1ccc(Nc2ncc3cc(C(F)F)c(=O)n([C@@H]4CCC[C@@]4(C)O)c3n2)c(C)c1 [I-256]
< 100 nM	CCS(=O)(=O)c1ccc(Nc2ncc3cc(C(F)F)nc(N4CCCC4)c3n2)c(C)c1 [I-42]
< 100 nM	CNS(=O)(=O)c1ccc(Nc2nccc(-c3cnc(C)n3C(C)C)n2)c(C)c1 [I-269]
< 100 nM	Cc1cc(S(N)(=O)=O)ccc1Nc1ncc(C(F)(F)F)c(-c2cnn(C)c2)n1 [I-272]
< 100 nM	CCS(=O)(=O)c1ccc(Nc2ncc(C(F)(F)F)c(-c3cnn(C)c3)n2)c(C)c1 [I-27, N-(4-ethylsulfonyl-2-methyl-phenyl)-4-(1-methylpyrazol-4-yl)-5-(trifluoromethyl) pyrimidin-2-amine]
< 100 nM	Cn1cc(S(=O)(=O)N2CCC(Nc3ncc4c(n3)N([C@@H]3CCC[C@@]3(C)O)C(=O)C43CC3)CC2)cn1 [I-254]
< 100 nM	CCS(=O)(=O)c1ccc(Nc2ncc(C(F)(F)F)c(-c3cn(C(C)C)c(C)n3)n2)c(C)c1 [I-44]
< 100 nM	Cn1cc(S(=O)(=O)N2CCC(Nc3ncc4c(n3)N(C3CCCC3)C(=O)C43CC3)CC2)cn1 [I-255]
< 100 nM	CNS(=O)(=O)c1ccc(Nc2ncc(C(F)(F)F)c([C@H]3CC[C@@](C)(O)CC3)n2)c(C)c1 [I-67]
< 100 nM	CNS(=O)(=O)c1ccc(Nc2ncc3ccc(=O)n(C4CCCC4)c3n2)c(C)c1 [I-252]
< 100 nM	CNS(=O)(=O)c1ccc(Nc2ncc3cc(C(F)F)c(=O)n(C4CCCC4)c3n2)c(C)c1 [I-242]
< 100 nM	CC(C)c1cccc2cnc(NC3CCN(S(C)(=O)=O)CC3)nc12 [I-215]
